What was measured:
Format in all cases: in vivo
Ceratitis capitata flies [1] = experiment: Photoinsecticidal action: fly survival after bait and sunlight irradiation; settings: 8 μM in bait, 12 h after feeding, survival 1 h after irradiation
Description: (§1) Porphyrins: • a) meso[tri(N-methyl-pyridyl), mono(N-dodecyl-pyridyl)]porphine (abbr.: C12) • b) meso[tri(N-methyl-pyridyl), mono(N-tetradecyl-pyridyl)]porphine (abbr.: C14) • c) meso[tri(N-methyl-pyridyl), mono(N-octadecyl-pyridyl)]porphine (abbr.: C18) Bait: Aqueous solution containing 10% sucrose and 1% autolysed yeast Flies: • a) Ceratitis capitata (fruit fly) age: 1 week; weight: 5-6 mg • b) Bactrocera oleae (olive fly) age: 10 days; weight: 4-4.5 mg • c) Stomoxis calcitrans (stable fly) age: 10 days; weight: 12 mg Irradiation: • a) High pressure halogen lamp, equipped with infrared and UV filters, emission 360-850 nm, operated at intensities in the 760-2,000 μE s^−1m^−2 range • b) Sunlight, mid June at Padua latitude, average intensity of […] μE s^−1m^−2 with minimum and maximum values of 950 and, respectively, 1,380 μE s^−1m^−2
The survival was evaluated 1 h after the end of irradiation.
(§2) An appropriate number of flies (50 flies per each experiment) was caged in 115×55×70 mm Plexiglas cages with several holes (ø=0.5 mm) and starved for 36 h. Then, depending on the protocol to be adopted for each specific experiment, the flies were fed with the bait (10% sucrose and 1% autolysed yeast in neutral aqueous solution), which was either porphyrin-free or added with a predetermined concentration of the porphyrin. These flies were then used in the various experimental sessions.

Ceratitis capitata flies [2] = experiment: Insecticidal action in the dark: fly survival after porphyrin bait; settings: for mortality of the flies in the dark: C. capitata, even at the largest porphyrin dose (8.1 μM); for Survival (% of control untreated flies): dark, fed 24 h, survival 12 h after change to porphyrin-free bait
Description: For comparison, data obtained with two conventional porphyrins (as those described in WO 97/29637) offered to the insects for 24 h at a 3.0 and 8.1 μmolar concentration in the same bait are also shown. In all cases, the survival was determined 12 hours after changing food supply from a porphyrin-containing to a porphyrin-free bait. […] These flies were then used in the various experimental sessions. […] The number of survivors was evaluated 12 h after switching from administration of a porphyrin-containing bait to a porphyrin-free bait. In none of the experiments was mortality or any apparent toxic effect observed in control flies (flies not fed with porphyrin, see survival at 0 μM porphyrin concentration).

Ceratitis capitata flies [3] = experiment: Photoinsecticidal action: fly survival after bait and visible light irradiation (artificial lamp); settings: 8 μM in bait, survival 10 h after irradiation
Description: as §1
The irradiations were performed for 1 h, then the flies were kept in dim light for monitoring the survival. Control flies were irradiated under identical conditions after feeding with a porphyrin-free bait.
The irradiations were performed for 1 h at a fluence-rate of 1220 μE s^−1m^−2. The survival was evaluated 10 h after the end of irradiation. […] The porphyrins are abbreviated as following: HP: haematoporphyrin; C1: meso-tetra(N-methyl-pyridyl)porphine.
The survival was evaluated 10 h after the end of irradiation.
as §2, with “sessions. […]” for “sessions.”

[4] = fluence-rate 760 μE s^−1m^−2, irradiated 24 h after feeding (title)
[5] = fluence-rate 1220 μE s^−1m^−2, irradiated 24 h after feeding (title)
[6] = fluence-rate 1500 μE s^−1m^−2, irradiated 24 h after feeding (title)
[7] = fluence-rate 2000 μE s^−1m^−2, irradiated 24 h after feeding (title)
[8] = time interval feeding-irradiation 0 h, irradiation 1 h at 1220 μE s^−1m^−2
[9] = time interval feeding-irradiation 12 h, irradiation 1 h at 1220 μE s^−1m^−2
[10] = time interval feeding-irradiation 24 h, irradiation 1 h at 1220 μE s^−1m^−2
[11] = time interval feeding-irradiation 48 h, irradiation 1 h at 1220 μE s^−1m^−2

Structure (SMILES)	Survival (% of control untreated flies) (Ceratitis capitata flies [1]; sunlight 15 min)	Survival (% of control untreated flies) (Ceratitis capitata flies [1]; sunlight 30 min)	Survival (% of control untreated flies) (Ceratitis capitata flies [1]; sunlight 45 min)	Survival (% of control untreated flies) (Ceratitis capitata flies [1]; sunlight 60 min)	mortality of the flies in the dark (Ceratitis capitata flies [2])	Survival (% of control untreated flies) (Ceratitis capitata flies [2]; 3.00 μM in bait)	Survival (% of control untreated flies) (Ceratitis capitata flies [2]; 8.10 μM in bait)	Survival (% of control untreated flies) (Ceratitis capitata flies [3]; [4])	Survival (% of control untreated flies) (Ceratitis capitata flies [3]; [5])	Survival (% of control untreated flies) (Ceratitis capitata flies [3]; [6])	Survival (% of control untreated flies) (Ceratitis capitata flies [3]; [7])	Survival (% of control untreated flies) (Ceratitis capitata flies [3]; [8])	Survival (% of control untreated flies) (Ceratitis capitata flies [3]; [9])	Survival (% of control untreated flies) (Ceratitis capitata flies [3]; [10])	Survival (% of control untreated flies) (Ceratitis capitata flies [3]; [11])
C[n+]1ccc(-c2c3nc(c(-c4cc[n+](C)cc4)c4ccc([nH]4)c(-c4cc[n+](C)cc4)c4nc(c(-c5cc[n+](C)cc5)c5ccc2[nH]5)C=C4)C=C3)cc1 [C1, Meso-tetra (N-methyl-pyridyl) porphine, reference compound]	100 % of control untreated flies	100 % of control untreated flies	93 % of control untreated flies	97 % of control untreated flies	no mortality of the flies was observed	100 % of control untreated flies	100 % of control untreated flies	100 % of control untreated flies	90 % of control untreated flies	81 % of control untreated flies	73 % of control untreated flies	90 % of control untreated flies	94 % of control untreated flies	100 % of control untreated flies	97 % of control untreated flies
CC1=C(CCC(=O)O)c2cc3[nH]c(cc4nc(cc5[nH]c(cc1n2)c(C)c5C(C)O)C(C)=C4C(C)O)c(C)c3CCC(=O)O (stereo not drawn) [Hp, Haematoporphyrin, reference compound]	75 % of control untreated flies	70 % of control untreated flies	64 % of control untreated flies	40 % of control untreated flies	no mortality of the flies was observed	100 % of control untreated flies	100 % of control untreated flies	81 % of control untreated flies	20 % of control untreated flies	11 % of control untreated flies	8 % of control untreated flies	20 % of control untreated flies	37 % of control untreated flies	58 % of control untreated flies	61 % of control untreated flies

Reference: US7384927B2, “Alkylated porphyrins as pesticides acting both in the presence and absence of light” (priority 2003, dated 2008)
